The values below come from paper PMC11623267, “Inhibitors of malaria parasite cyclic nucleotide phosphodiesterases block asexual blood-stage development and mosquito transmission” (Science Advances, 2024).

Assay [1] has as its system cGMP-PDE activity in gametocyte lysates (PDEα, PDEδ). As to the kind of experiment: cGMP hydrolysis SPA in stage IV/V gametocyte membrane lysates. To be noted: gametocyte lysate; geometric mean ×/÷ geometric SD. The assay is classed as biochemical, Plasmodium falciparum. The procedure:
cGMP signaling is known to play an essential role in gametogenesis in Plasmodium ([19], [20], [28]). We therefore tested the effects of all newly synthesized analogs for their ability to inhibit cGMP hydrolysis in crude gametocyte membrane preparations. […] S5A. These findings were also consistent with our enzyme-linked immunosorbent assay (ELISA)–based measurement of elevated cGMP levels in gametocytes following incubation with an example of each subseries (Fig. 2A). […] The levels of cAMP detected in gametocytes were similar in dimethyl sulfoxide (DMSO)–, XA-, and inhibitor-treated samples, and we could detect little or no cAMP hydrolysis in mature gametocytes (fig. S5B). […]
(§1) The cyclic nucleotide hydrolytic activity of membrane-associated parasite PDE enzymes was measured by a scintillation proximity assay (SPA) ([18]) using lysates of mature P. falciparum schizonts or stage IV/V gametocytes. […] The IC50 values for the compounds were determined using threefold serial dilutions in duplicate. […] The reactions were terminated by addition of 25 μl of PDE SPA beads (PerkinElmer, RPNQ0150), and after 20 min of incubation at room temperature, scintillation was measured using a Wallac 1450 Microbeta Counter (PerkinElmer) for 30 s. […]

A further assay deals with P. falciparum Dd2-B2. As to the kind of experiment: 72-hour flow cytometry EC50 assay, Dd2-B2 parental line. The format is cell-based, Plasmodium falciparum. As to conditions: Plasmodium falciparum, DD2, read-out: EC50 Dd2-B2 parental line. How it is done: (§2) Stocks of SAL-0010003 (5-benzyl), SAL-0010355 (5-aryl), and SAL-0010419 (2-alkyl) were made at 10 and 1 mM in DMSO. Aliquots in use were stored at −20°C, and long-term storage was at −80°C. All in vitro studies were done such that the final DMSO concentration was <0.5%. P. falciparum ABS parasites were cultured at 3% hematocrit in human O+ RBCs in RPMI 1640 medium, supplemented with 25 mM Hepes, 50 mg L-hypoxanthine, 2 mM L-glutamine, 0.225% sodium bicarbonate, 0.5% (w/v) AlbuMAX II (Invitrogen) and gentamycin (10 μg/ml), in modular incubator chambers (Billups-Rothenberg) at 5% O2, 5% CO2, and 90% N2 at 37°C. Dd2-B2 (obtained from T. Wellems, National Institute of Allergy and Infectious Diseases, National Institutes of Health) is a genetically homogenous line that was cloned from Dd2 by limiting dilution. To define the EC50 and EC90 values of ABS parasites, Dd2-B2 ring-stage cultures at 0.2% parasitemia and 1% hematocrit were exposed for 72 hours to a range of 10 drug concentrations that were twofold serially diluted in duplicates along with drug-free controls. Parasite survival was assessed by flow cytometry on an iQue flow cytometer (Sartorius) using SYBR Green and MitoTracker Deep Red FM (Life Technologies) as nuclear stain and vital dyes, respectively. After determination of the EC50 and EC90 values for the three compounds with the P. falciparum Dd2-B2 clone, one single-step selection was set up using 2 × 10^5 parasites in each well of a 96-well plate at a starting concentration of 3× EC90. Parasites were cleared from the culture rapidly, and cultures were screened three times weekly by flow cytometry and counted as positive for recrudescence when the overall parasitemia reached 0.3% and the parasites were visible on a blood smear. DNA was extracted from recrudescent lines using a QIAGEN QIAamp Blood Mini Kit, and libraries were prepared with the Illumina DNA Prep kit for whole-genome sequencing on the Illumina MiSeq using a V3 2 × 300–base pair flow cell.

The test system of assay [2] is P. falciparum Dd2-B2 lines selected under drug pressure. Kind of assay: 72-hour flow cytometry EC50 assay, lines selected under drug pressure. The assay is classed as cell-based, Plasmodium falciparum. As to conditions: for EC50: Plasmodium falciparum. The procedure:
Three examples of an additional compound series developed independently [NPD-2958, NPD-3518 ([31]), and NPD-3738; fig.
as §2

In the next assay the test system is P. falciparum 3D7. As to the kind of experiment: P. falciparum 3D7 LDH growth inhibition assay (asexual blood stage). The assay is classed as cell-based, Plasmodium falciparum. The procedure: P. falciparum isolates (3D7/Dd2) were obtained from BEI Resources and were cultured using standard procedures as described elsewhere ([47]). Briefly, P. falciparum was grown in RPMI 1640 medium (10.3 g/liter) supplemented with L-glutamine (2 mM), hypoxanthine (150 μM), Hepes (25 mM), D-glucose (12 mM), sodium bicarbonate (25.7 mM), AlbuMAX II (0.5% or 5 g/liter) (pH 7.4), and 2% RBC (type O+, freshly prepared). Cultures were replenished with fresh medium and RBCs every other day. For RBC preparation, whole blood was centrifuged at 415g at room temperature for 12 min. After that, the plasma and buffy coat were removed, and packed RBCs were washed three times with 3 vol of RPMI 1640. Last, RBCs were resuspended in 1:1 vol of complete RPMI 1640 medium (containing 0.5% AlbuMAX II).
The P. falciparum 3D7 and Dd2 LDH growth inhibition assay was carried out as described elsewhere ([48]) with minor modification of the parasitological conditions (10 to 15% parasitemia with ≥80% rings). Data were normalized to percent growth inhibition with respect to […] (for 3D7, a mixture of 100 nM chloroquine and 100 nM atovaquone as 100% inhibition; for Dd2, a mixture of 200 nM DHA and 200 nM atovaquone as 100% inhibition) controls.

Another assay addresses T1, PDEβ (Plasmodium falciparum, UniProt Q8I6Z7).
T1 construct: endogenous in cells; host or cells: P. falciparum 3D7 schizonts, NP-40 membrane lysate
Kind of assay: cAMP hydrolysis SPA in schizont membrane lysates. The format is biochemical. To be noted: read-out: IC50 against PDEβ.
From the text: We identified three PDE inhibitor chemical series generated by Pfizer, with structures in the public domain, which have activity against malaria parasites (see the “Chemistry strategy summary” section). These series were originally designed to inhibit human PDEs and were chosen as chemistry start points to optimize activity against malaria parasites. More than 400 new analogs were generated (full details of their properties will be reported in a separate paper, in preparation) through iterative rounds of synthesis and testing. The chemistry start points for each of the series were SAL-0010042 (5-benzyl), SAL-0010043 (5-aryl), and SAL-0010034 (2-alkyl) (see Materials and Methods and fig. S1A). S2. Analytical data for these compounds are provided in data S1. All newly synthesized compounds were tested for inhibition of native cAMP-PDE activity in mature schizont crude membrane preparations and inhibition of P. falciparum ABS growth. S3A. […] The unbound EC50 values for the compounds in the parasite growth inhibition assay were consistently calculated to be sevenfold higher than the IC50 values in the biochemical assay. Given that PDEβ is dual specific (i.e., can hydrolyze both cAMP and cGMP), we also determined IC50 values for cGMP hydrolysis. […] The IC50 values measured for cGMP hydrolysis in blood-stage schizonts were generally similar to those for cAMP hydrolysis (Table 1). […]
as §1

The test system of the next assay is malaria parasites. Also on record: method as in PMID 25951195, PMID 33262483. As to conditions: cited from earlier work.
The subject of the next assay is P. falciparum ABS. As to conditions: read-out: Median effective dose, P. falciparum ABS growth inhibition; cited from earlier work.

The structures appear in SMILES notation. Read-outs that look alike come from different tables or passages of the source. Bounds are passed on as bounds.

T1 sequence (Q8I6Z7 whole entry): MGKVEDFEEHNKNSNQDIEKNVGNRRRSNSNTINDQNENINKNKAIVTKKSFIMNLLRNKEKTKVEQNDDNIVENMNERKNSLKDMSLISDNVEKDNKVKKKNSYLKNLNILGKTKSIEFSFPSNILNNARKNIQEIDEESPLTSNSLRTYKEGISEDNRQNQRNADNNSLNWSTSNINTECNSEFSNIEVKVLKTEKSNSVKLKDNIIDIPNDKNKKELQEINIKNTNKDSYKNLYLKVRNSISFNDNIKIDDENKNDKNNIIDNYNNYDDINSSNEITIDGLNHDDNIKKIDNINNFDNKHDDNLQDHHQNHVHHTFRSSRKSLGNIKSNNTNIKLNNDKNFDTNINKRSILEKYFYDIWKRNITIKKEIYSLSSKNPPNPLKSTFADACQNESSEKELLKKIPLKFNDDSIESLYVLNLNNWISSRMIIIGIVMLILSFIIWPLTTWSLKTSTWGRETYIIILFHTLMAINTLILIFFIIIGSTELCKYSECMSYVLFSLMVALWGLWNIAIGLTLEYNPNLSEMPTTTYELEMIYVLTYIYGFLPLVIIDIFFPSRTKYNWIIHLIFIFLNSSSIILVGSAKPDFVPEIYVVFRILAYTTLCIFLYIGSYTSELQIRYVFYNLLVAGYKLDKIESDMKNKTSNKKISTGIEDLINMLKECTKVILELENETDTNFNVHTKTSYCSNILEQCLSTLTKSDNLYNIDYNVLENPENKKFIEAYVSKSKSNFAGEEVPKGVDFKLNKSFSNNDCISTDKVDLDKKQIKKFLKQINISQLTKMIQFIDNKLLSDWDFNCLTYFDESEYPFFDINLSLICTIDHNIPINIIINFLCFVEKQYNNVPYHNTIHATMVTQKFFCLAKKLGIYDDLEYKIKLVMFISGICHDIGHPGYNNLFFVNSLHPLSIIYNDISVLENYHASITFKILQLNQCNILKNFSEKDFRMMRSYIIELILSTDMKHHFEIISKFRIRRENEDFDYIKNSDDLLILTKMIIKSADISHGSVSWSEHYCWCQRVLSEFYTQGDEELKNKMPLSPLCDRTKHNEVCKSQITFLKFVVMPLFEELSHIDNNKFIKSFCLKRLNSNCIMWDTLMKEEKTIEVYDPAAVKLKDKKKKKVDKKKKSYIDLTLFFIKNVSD

Compound `CCc1c2nc(-c3cc(-c4cccnc4)cnc3OCC(C)C)[nH]c(=O)c2nn1CCOC` [SAL-0010419] showed an IC50 in assay [1] greater than 10000 nM. In addition, the EC50 in the assay on P. falciparum Dd2-B2 stood at 61.4 nM; in assay [2] (DD2, read-out: EC50, line selected with SAL-0010419, Well C4), 360 nM; in assay [2] (DD2, read-out: EC50, line selected with SAL-0010419, Well E11) it was 344 nM; in assay [2] (DD2, read-out: EC50, line selected with SAL-0010419, Well F8) it was 293 nM. Also, in assay [2] (selected lines vs Dd2-B2 parental line, ±SD), the “Mean fold change in EC50” value came to 5.4 ± 0.6 fold. In addition, the “EC50 shift, line selected with SAL-0010419, Well C4” value in assay [2] (vs Dd2-B2) stood at 5.9 fold. Also, the “EC50 shift, line selected with SAL-0010419, Well E11” value in assay [2] (vs Dd2-B2) is 5.6 fold. Besides, in assay [2] (vs Dd2-B2), the “EC50 shift, line selected with SAL-0010419, Well F8” value worked out at 4.8 fold.

Turning to `CCCc1n[nH]c2c(=O)[nH]c(-c3cc(S(=O)(=O)N4CCN(C)CC4)ccc3OCC)nc12` [des-Me sildenafil, desmethyl (des-Me) sildenafil], the EC50 in the assay on P. falciparum 3D7 (Plasmodium falciparum, 3D7, read-out: EC50 against ABS parasites) came to 415 nM. Further, the “Difference in ABS EC50 vs sildenafil” value in the assay with P. falciparum 3D7 (des-Me sildenafil vs sildenafil) was greater than 60 fold. Besides, the IC50 on PDEβ turned out to be 36.7 nM.

For `CN1CC(=O)N2[C@H](c3ccc4c(c3)OCO4)c3[nH]c4ccccc4c3C[C@@H]2C1=O` [tadalafil], the “IC50 against malaria parasites” value in the assay with malaria parasites is “mid-to-high micromolar range”.

Take `CCCOc1ccccc1-c1nc2nn[nH]c2c(=O)[nH]1` [zaprinast]: the EC50 with P. falciparum ABS was 35000 nM.
